Laboratory results: ChEMBL document CHEMBL1126961, “The design and synthesis of kappa opioid ligands based on a binding model for kappa agonists” (Bioorg Med Chem Lett, 1993)
pKi: −log10 of the molar value.

Experiments:
[1] = biological target: T1, Kappa-type opioid receptor (Homo sapiens, UniProt P41145); assay: Tested in vitro for binding affinity against Opioid receptor kappa 1
Mu-type opioid receptor = Mu-type opioid receptor (Homo sapiens, UniProt P35372); assay: Tested in vitro for binding affinity against mu opioid receptor
[2] = biological target: T1, Kappa-type opioid receptor; assay: Ratio of binding affinity against kappa opioid receptor to binding affinity against mu opioid receptor

T1 sequence (P41145 whole entry): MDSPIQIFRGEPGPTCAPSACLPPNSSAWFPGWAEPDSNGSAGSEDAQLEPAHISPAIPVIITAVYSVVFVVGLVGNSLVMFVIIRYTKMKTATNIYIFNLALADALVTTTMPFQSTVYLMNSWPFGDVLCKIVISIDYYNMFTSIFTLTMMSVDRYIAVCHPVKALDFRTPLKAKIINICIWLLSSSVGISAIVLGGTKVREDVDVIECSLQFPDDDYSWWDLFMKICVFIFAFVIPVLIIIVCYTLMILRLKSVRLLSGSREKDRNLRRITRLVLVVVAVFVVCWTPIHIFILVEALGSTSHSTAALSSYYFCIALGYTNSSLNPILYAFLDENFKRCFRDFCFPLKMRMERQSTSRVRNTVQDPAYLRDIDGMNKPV
Chain of Mu-type opioid receptor (P35372 whole entry): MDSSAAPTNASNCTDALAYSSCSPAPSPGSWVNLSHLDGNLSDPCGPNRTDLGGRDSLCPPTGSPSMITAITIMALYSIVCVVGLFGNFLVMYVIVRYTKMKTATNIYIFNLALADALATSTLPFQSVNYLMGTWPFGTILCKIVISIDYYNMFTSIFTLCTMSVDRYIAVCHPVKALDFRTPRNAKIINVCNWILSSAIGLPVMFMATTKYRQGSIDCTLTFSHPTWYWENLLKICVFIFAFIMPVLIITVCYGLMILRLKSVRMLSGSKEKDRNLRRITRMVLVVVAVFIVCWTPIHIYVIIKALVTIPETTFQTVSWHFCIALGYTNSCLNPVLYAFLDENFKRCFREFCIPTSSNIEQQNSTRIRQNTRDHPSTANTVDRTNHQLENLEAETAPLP

Structure (SMILES) | pKi [1] | pKi (Mu-type opioid receptor) | Ratio [2]
O=C1Cc2cccc(c2)OCCCCNCCN1 | < 5.00 | < 5.00 | –
O=C(Cc1cccc2occc12)NCC12CCCN1CCC2 | 6.03 | 5.47 | 3.5
CN(C(=O)Cc1c(OCCN2CCCC2)ccc2ccccc12)C1CCCCC1 | 6.80 | < 5.00 | > 60
CC[C@]12CCN(CC3CC3)[C@H](C(=O)c3ccc(O)cc31)[C@@H]2C | – | 8.99 | –
